# Source: patent publication US6511974B1, “Tricyclic vasopressin agonists” (Wyeth, priority 1997, dated 2003)
# What was measured:
# Vasopressin V2 = biological target: T1, Vasopressin V2 (Rattus norvegicus, UniProt Q00788); test: Vasopressin V2 agonist effects in normal conscious water-loaded rats; type: in vivo; details: Sprague-Dawley (CD) rats, urine collected four hours; for Urine Volume (% decrease): 10 mg per kg oral, percent decrease in urine volume vs. control; for Osmolality (% Increase): 10 mg/kg oral, change in osmolality as percent of control
# T1 construct: vasopressin V2 receptors of the nephrons of the kidney; tissue Charles River Laboratories, Inc; host or cells: whole living animal (kidney collecting ducts)
# T1 sequence (Q00788 whole entry): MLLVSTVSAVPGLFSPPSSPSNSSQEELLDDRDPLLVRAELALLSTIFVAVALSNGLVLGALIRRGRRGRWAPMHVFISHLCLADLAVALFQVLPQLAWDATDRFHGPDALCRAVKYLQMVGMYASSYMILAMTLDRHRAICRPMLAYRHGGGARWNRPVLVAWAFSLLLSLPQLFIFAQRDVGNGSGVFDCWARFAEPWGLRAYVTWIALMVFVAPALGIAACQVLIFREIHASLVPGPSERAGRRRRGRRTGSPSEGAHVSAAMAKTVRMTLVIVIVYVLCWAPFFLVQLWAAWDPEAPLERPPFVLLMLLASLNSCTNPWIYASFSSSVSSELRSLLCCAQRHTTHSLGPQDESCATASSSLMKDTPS
# Description: Vasopressin V2 Agonist Effects of Test Compounds in Normal Conscious Water-Loaded Rats:
# Male or female normotensive Sprague-Dawley rats (Charles River Laboratories, Inc., Kingston, N.Y.) of 350-500 g body weight were supplied with standard rodent diet (Purina Rodent Lab. Chow 5001) and water ad libitum. On the day of test, rats were placed individually into metabolic cages equipped with devices to separate the feces from the urine and containers for collection of urine. Test compound or reference agent was given at an oral dose of 10 mg/kg in a volume of 10 ml/kg. The vehicle used was 20% dimethylsulfoxide (DMSO) in 2.5% preboiled corn starch. Thirty minutes after dosing the test compound, rats were gavaged with water at 30 ml/kg into the stomach using a feeding needle. During the test, rats were not provided with water or food. Urine was collected for four hours after dosing of the test compound. At the end of four hours, urine volume was measured. Urinary osmolality was determined using a Fiske One-Ten Osmometer (Fiske Associates, Norwood, Mass., 02062) or an Advanced CRYOMATIC Osmometer, Model 3C2 (Advanced Instruments, Norwood, Mass.). Determinations of Na^+, K^+ and Cl^− ion were carried out using ion specific electrodes in a Beckman SYNCHRON EL-ISE Electrolyte System analyzer. The urinary osmolality should increase proportionally. In the screening test, two rats were used for each compound. If the difference in the urine volume of the two rats was greater than 50%, a third rat was used.
Urine Volume (% decrease) (Vasopressin V2) [%],Osmolality (% Increase) (Vasopressin V2) [%],melting point [°C],SMILES
70,325,,Cc1ccn(-c2ccc(C(=O)N3Cc4cccn4Cc4ccccc43)c(Cl)c2)n1 [Example 9A]
56,291,,"Cn1ncnc1-c1ccc(C(=O)N2Cc3cccn3Cc3ccccc32)c(Cl)c1 [Example 84, [2-Chloro-4-(2-methyl-2H-[1,2,4]triazol-3-yl)-phenyl]-(5H,11H-pyrrolo [2,1-c][1,4]benzodiazepin-10)-methanone]"
,,179 to 181,"Cc1cnn(-c2ccc(C(=O)N3C=C4CC=CN4Cc4ccccc43)cc2)c1 [Example 60, [4-(4-Methyl-pyrazol-1-yl)-phenyl]-(5H,1H-pyrrolo[2,1-c][1,4]-benzodiazepin-10-yl)-methanone]"
88,663,,"C#Cc1ccc(C(=O)N2Cc3cccn3Cc3ccccc32)c(Cl)c1 [Example 123, [2-Chloro-4-ethynyl-phenyl](5H-11H-pyrrolo [1,2-c][1,4]benzodiazepin-10-yl)methanone.]"
